Reference: patent publication US20230114123A1, “METHOD OF STIMULATING ASYMMETRIC DIVISION OF SATELLITE STEM CELLS” (Ottawa Hospital Research Institute, priority 2017, published 2023)

Columns and labels:
EGFR phosphorylation = assay: p-EGFR immunoblot in serum-starved, re-fed primary myoblasts; type: cell-based, mouse; settings: 1 h
Description: Cell Culture and Co-Immunoprecipitation. Satellite cells were isolated from WT mice by fluorescence activated cell sorting and cultured as primary myoblasts on collagen-coated plates in primary myoblast growth media (Ham's F10 media (Gibco) with 20% FBS (Wisent), 1% penicillin-streptomycin (Gibco) and 5 ng/mL bFGF (Cedarlane)).
Immunoblotting. Proteins were separated on 10% SDS-PAGE and transferred to Immobilon-P PVDF membrane (EMD Millipore). Membranes were probed with primary antibodies, followed by light chain specific HRP-conjugated secondary antibodies at 1:5000 (Bio-Rad) and developed using Immobilon Western HRP substrate (EMD Millipore). Membranes were visualized using FluorChem HD2 (Alpha Innotech) or exposed to BIOMAX film (Eastman Kodak).

[1] = tested on: regenerating mdx TA muscles; assay: Cardiotoxin-induced injury of TA muscle in mdx mice, intramuscular treatment; type: in vivo, mouse
From the text: Previously, the inventors observed that dystrophin- or Dag1-deficient muscles generate reduced numbers of Pax7-expressing and Myog-expressing cells following CTX-injury.
PTP1b inhibitor was concurrently administered with cardiotoxin into mdx TA muscles and supplemented again 2 days after the injury (FIG. 13A). To assess the muscle stem cell function after injury and the regenerative capacity of the treated mdx muscles, the inventors examined the histology of the regenerating muscles 10 days post cardiotoxin injection. Whereas the control vehicle treated muscles still contained large areas of necrotic fibers (msIgG+), the muscles treated with PTP1b inhibitors were better regenerated as evidenced by the presence of 50% […] Myh3-expressing myofibers (FIG. 13B). […] These findings are consistent with PTP1b inhibition inducing an increase in EGFR signaling and accelerated de novo myofiber formation in regenerating mdx muscles (FIG. 14).
Electroporation and Cardiotoxin Injury. Intramuscular (i.m.) cardiotoxin injections (Latoxan, 50 μl of 10 μM solution in saline) were injected directly into the right TA muscle through the skin under general anesthesia. For pharmacological inhibition, Lapatinib ditosylate (1 mM in DMSO; Santa Cruz Biotechnology), the PTP1b inhibitor CAS 765317-72-4 (10 mM in DMSO; Santa Cruz Biotechnologies) was mixed into the cardiotoxin solution for a final concentration of 1 μM or 20 μM, respectively; equal dilution of DMSO was used as vehicle control. Supplemental injection of inhibitors (20 μL of 2.5 μM of Lapatibin or 50 μM of PTP1b inhibitor diluted in saline) was performed 2 days after cardiotoxin injection.
Muscle samples were embedded in OCT embedding compound and frozen in liquid nitrogen cooled isopentane and cryosectioned in 12-μm slices. Cross-sections were washed once with PBS and fixed in 2% PFA 10 min, permeabilized with 0.1% Triton X-100/0.15 M Glycine/PBS for 10 min and extensively washed with PBS. Samples were blocked using M.O.M. Blocking reagent (Vector) for 2 h followed by additional blocking in 5% NGS/2% BSA at 4° C. over night. Primary antibodies were applied in blocking at 4° C. over night. Samples were washed extensively in PBS and secondary antibodies were applied in PBS (Alexa Flour 546, 647) for 1 h at room temperature. Following PBS washes, cross-sections were counterstained with DAPI ([…]) for 10 min and mounted with Permaflour (Fisher).
Histological Analysis of Muscle Sections. For Fiber type analysis, non-fixed samples were washed with PBS and blocked in 10% normal goat serum (NGS) for 1 hr at room temperature. Primary antibodies were applied in 10% NGS for 2 h at room temperature. Sections were washed extensively with PBS and secondary antibodies were applied in PBS for 1 h at room temperature. Following PBS washes, sections were counterstained with DAPI for 10 min and mounted with Permaflour. Antibodies were as follows: mouse anti-MyH3 (clone F1.652, DSHB), mouse anti-MyH4 (clone BF-F3, DSHB).
For analysis of myofiber Feret's diameter, non-fixed samples were washed with PBS and stained with Wheat Germ Agglutinin Alexa 647 conjugate (Fisher) for 1 h at room temperature. Samples were washed once with PBS and counterstained with DAPI. Samples were washed with PBS and mounted with Permaflour. Images were taken immediately following staining. Minimum fiber Feret measurement was performed using the SMASH software in MATLAB 2015a as described in Smith, L. R., and Barton, E. R. (2014) SMASH—semi-automatic muscle analysis using segmentation of histology: a MATLAB application. Skelet. Muscle 4, 21, which is incorporated herein by reference. Samples with significant staining artifacts were excluded from automated analyses.

[2] = tested on: phosphorylated EGFR (p-EGFR); assay: p-EGFR immunostaining of mdx EDL myofibers; type: cell-based, mouse; settings: 1 h with or without recombinant EGF 100 ng/mL, FIG. 3A
Description: Therefore, the inventors conclude that that EGFR signaling occurs normally in mdx satellite cells.
To assess the signaling status of EGFR in quiescent satellite cells, EDL muscles were fixed in 4% PFA immediately post-dissection. Myofiber bundles were teased from the fixed muscles by tweezers.
Immunostaining and Antibodies. EDL myofibers were fixed for 10 min in 2% PFA and washed with PBS. Fibers were blocked and permeablized in horse serum blocking buffer (5% horse serum, 1% BSA (Sigma), and 0.5% Triton X-100 (Sigma) in PBS) for 1 h at room temperature or at 4° C. over night. Primary antibodies were applied in blocking solution for 2 h at room temperature or at 4° C. over night. Samples were subsequently washed with PBS and stained with appropriate fluorescently labeled secondary antibodies (Alexa fluor 488, 546, or 647) for 1 h at room temperature. After washing with PBS, samples were mounted with Permafluor (Fisher).

mdx satellite cells = assay: Mitotic orientation by p-Aurk staining, mdx myofibers 36 h; type: cell-based, mouse; settings: 36 h culture, recombinant EGF vs vehicle, FIG. 3B
Description: However, the rate of abnormal cell divisions in mdx satellite cells as evidenced by abnormal patterns of p-Aurk staining was unaffected by EGF stimulation. This observation implies that cell cycle dysregulation is not completely rescued by polarity signaling alone. […] Therefore, to assess whether EGF-driven asymmetric divisions could ameliorate the reduced generation of myogenic progenitors in mdx cultures, single EDL myofibers from mdx mice were cultured for 72 h and immunostained for the expression of Myog.
Characterization of Satellite Cell Divisions. The orientation of mitotic spindles in satellite cells was measured as described in Dumont et al. (2015). Single myofibers were fixed after 36 h of in vitro culture, as described above. Satellite cells were identified by Pax7 expression in the nucleus, as detected by immunofluorescene. Pax7 staining becomes cytoplasmic in mitotic satellite cells after the dissociation of the nuclear envelope, but is still discernable. […] Mitotic satellite cells with p-Aurk staining patterns that were not observed in WT cells, including monopolar, multipolar (>2), and abscission defects were quantified as abnormal. Mitotic orientations were manually counted according to the angle between the mitotic spindle and the tangential plane of the satellite cell's attachment point to the myofiber.

satellite cells = assay: Mitotic orientation by p-Aurk centrosome staining, EDL myofibers 36 h; type: cell-based, mouse; settings: 36 h culture, recombinant EGF vs vehicle, FIGS. 2B and 2C
Description: The inventors cultured single EDL myofibers for 36 h and satellite cell centrosomes were detected by immunostaining for phosphorylated aurora kinase (p-Aurk).
Characterization of Satellite Cell Divisions. The orientation of mitotic spindles in satellite cells was measured as described in Dumont et al. (2015). Single myofibers were fixed after 36 h of in vitro culture, as described above. Satellite cells were identified by Pax7 expression in the nucleus, as detected by immunofluorescene. Pax7 staining becomes cytoplasmic in mitotic satellite cells after the dissociation of the nuclear envelope, but is still discernable. Mitotic satellite cells were identified by positive p-Aurk staining, which labels cells from pro-metaphase to cytokinesis. Mitotic satellite cells with p-Aurk staining patterns that were not observed in WT cells, including monopolar, multipolar (>2), and abscission defects were quantified as abnormal. Mitotic orientations were manually counted according to the angle between the mitotic spindle and the tangential plane of the satellite cell's attachment point to the myofiber.

## CCc1oc2cc(S(=O)(=O)Nc3ccc(S(=O)(=O)Nc4nccs4)cc3)ccc2c1C(=O)c1cc(Br)c(O)c(Br)c1 [PTP1b inhibitor, 3-(3,5-dibromo-4-hydroxy-benzoyl)-2-ethyl-benzofuran-6-sulfonicacid-(4-(thiazol-2-ylsulfamyl)-phenyl)-amide, reference compound]
EGFR phosphorylation; growth media alone, FIGS. 12A and 12B
  increase in EGFR phosphorylation (p-EGFR grey values): 80%
EGFR phosphorylation; in the presence of added recombinant EGF
  increase in EGFR phosphorylation (p-EGFR grey values): 20%
[1]; PTP1b inhibitor with cardiotoxin and again 2 days after, 10 days post injection, FIG. 13B
  fewer Myh3-expressing myofibers vs vehicle: 50%
[1]; PTP1b inhibitor, 10 days post cardiotoxin, FIG. 13C
  increase in muscle mass compared to vehicle treated controls: 14%
[1]; PTP1b inhibitor, 10 days post cardiotoxin, FIG. 13F
  numbers of satellite cells (Pax7+): increased numbers of satellite cells
[1]; PTP1b inhibitor, 10 days post cardiotoxin, FIGS. 13D and E
  increase on average in Feret's diameters of myofibers compared to control muscles: 2 fold

## EGF: human recombinant EGF protein (Life Technologies), direct activator of the EGFR pathway
[1]; 10 ng recombinant EGF IM at CTX injury and 2 d after, 10 days post injury, FIG. 5B
  increase in Pax7-expressing cells: 26%
[1]; 10 ng recombinant EGF IM at CTX injury and 2 d after, 10 days post injury, FIG. 5C
  increase in the numbers of Myog-expressing cells: 50%
[1]; EGF-treated vs vehicle-injected controls, 10 days post injury
  Feret's diameter of regenerating myofibers: an increase in Feret's diameter
[2]
  p-EGFR staining in mdx fibers: P-EGFR was only observed in mdx fibers treated with EGF
Mdx satellite cells
  numbers of apicobasal orientated mitotic centrosomes, mdx satellite cells: increased numbers of apicobasal orientated mitotic centrosomes
  rate of abnormal cell divisions (abnormal patterns of p-Aurk staining), mdx satellite cells: unaffected
Satellite cells
  increase in the proportion of mitotic cells aligned along the apicobasal axis: 50%
